Assay results: patent EP1967193A1, “Enhancement of anticancer therapy by flavonoids” (Vrije Universiteit Medisch Centrum (VUMC), priority 2007, dated 2008)
“And” between values parts separate entries of the source, which are not always exact repeats. Equal values may be shown once. “Also recorded” adds a separate entry of the source.

Experiments:
[1] = system: STS; conditions: STS patients without prior chemotherapy; DOX alone; cited from earlier work
[2] = system: cardiomyocytes; conditions: cited from earlier work
[3] = Phase II study: adverse events and laboratory monitoring; assay type: in vivo, human
Protocol: (§1) MonoHER was administered as a 10 min intravenous infusion at a dose of 1500 mg/m^2 60 min before every DOX administration. If cardiotoxicity would be observed in the first three evaluable patients, administration according to this dosing scheme would be changed and the following patients would receive DOX infusion either immediately after monoHER (because in plasma and heart Cmax of monoHER is obtained immediately after the end of infusion (17, 19)) or with an interval of 2 hours (to give monoHER the opportunity to convert into an active metabolite, if any).
(§2) Before starting the study patients were evaluated by a full blood count, serum biochemistry including liver function tests, lactate dehydrogenase (LDH) and cholesterol. Risk factors for cardiovascular disease were also evaluated. An LVEF and an ECG were performed before entry into the study.
(§3) Every subsequent administration of monoHER and DOX was preceded by a full blood count, liver enzymes, serum creatinine and a routine 12-lead ECG. A complete blood count was also done 10 days after the chemotherapy.

[4] = Detection of metabolites of monoHER
[5] = system: doxorubicin-induced chronic cardiotoxicity; conditions: preclinical, cited from earlier work
[6] = cited from earlier work
[7] = system: metastatic solid tumors; assay: Phase II study: assessment of tumor response by CT-scan, ECOG criteria; assay type: in vivo, human; parameters: key to Response on dox: PD = progressive disease; PR = partial remission; SD = stabile disease; conditions: for partial remission maintained, time after the start of chemotherapy: maintained up to the present
Protocol: Patients with metastatic solid tumors were entered when they received a DOX-based chemotherapy regimen with a dosage of DOX ≥ 50 mg/m^2/ cycle and an infusion duration ≤ 1 hour. […] The left ventricular ejection fraction (LVEF) was > 50%. Patients were excluded if they had received prior anthracyclines, had prior or actual cardiovascular disease or had prior radiotherapy to the mediastinum.
as §1
Assessment of tumor response was done every 2-3 cycles by CT-scan, using standard ECOG criteria (24).

[8] = Phase II study: monitoring of cardiac function (LVEF, ECG); assay type: in vivo, human
Protocol: as §2, §3
(§4) After a cumulative dose of 300 mg/m^2 DOX an endomyocardial biopsy was performed and measurement of the LVEF was repeated. The latter was also done at least 3 weeks after the last dose of DOX and a biopsy was repeated if possible. For logistic reasons, the biopsy of patient #8 was done after a cumulative dose of 375 mg/m^2 DOX.
Patients went off study in case of progressive disease, a serious cardiac event, or other events that precluded further treatment. Criteria described by Shapiro et al. (22) were used for diagnosis of cardiac events. Episodes of cardiac dysfunction were characterized according to the New York Heart Association functional classification (23).

[9] = system: cardiomyocytes; assay: Phase II study: endomyocardial biopsy scored by electron microscopy for DOX-induced cardiotoxicity; assay type: in vivo, human; conditions: for Biopsy score cum.dose/Δt/grade: left ventricle; for Cum.dose / biopsy score / LVEF: biopsy score: second biopsy
Protocol: In this example, we evaluated the cardioprotective properties of monoHER given as a 10 minute i.v infusion at a dose of 1500 mg/m^2 in patients with metastatic cancer treated with DOX. For the early detection of DOX-induced cardiotoxicity endomyocardial biopies were taken, because of its high sensitivity and high specificity (18).
as §1, §4
During a left heart catheterization, a 104 cm, 7 french biopsy forceps was used to obtain tissue from the left ventricle. Three to four specimens 0.5 to 1 mm in diameter were obtained. The specimens were fixed in 4% buffered formaldehyde and prepared for electron microscopy.
After fixation in 4% buffered formaldehyde, the heart tissue was post fixed in 1% osmium tetroxide. The tissue was then dehydrated through a graded series of ethanol solutions of 70-95% and embedded in JB-4 Plus resin. Thereafter, 0.5-3.0 µm thick sections were cut with a glass knife. These semithin sections were processed for electron microscopy. Cardiomyocytes with more than 2 microvacuoles, macrovacuoles and/or loss of myofibrils were counted as deviant. The morphological grade determined from the specimens examined by electron microscopy was scored on a 6-point scale previously described by Billingham and Bristow (20, 21): in grade 0 cells are normal; in grade 1, 1.5, 2 and 2.5 deviant cells are < 5%, 5-15%, 16 - 25 % and 26 - 35%, respectively; in grade 3 cell damage is present in more than 35% of cells.

[10] = patient 03, cum. dose 480 mg/m^2 DOX
[11] = patient 04, cum. dose 450 mg/m^2 DOX

COc1cccc2c1C(=O)c1c(O)c3c(c(O)c1C2=O)C[C@@](O)(C(=O)CO)C[C@@H]3O[C@H]1C[C@H](N)[C@H](O)[C@H](C)O1 [DOX, doxorubicin]
objective responses on DOX [1]: approximately 25%
patients with anthracycline-induced myocardial damage ([2]; cumulative DOX doses of 240 mg/m^2, data of Billingham et al.): nearly all patients
biopsy score expected after DOX alone ([2]; cumulative dose of 300 mg/m^2 DOX, linear regression analysis of Torti et al., right ventricle): 1.4

C[C@@H]1O[C@@H](OC[C@H]2O[C@@H](Oc3c(-c4ccc(O)c(O)c4)oc4cc(OCCO)cc(O)c4c3=O)[C@H](O)[C@@H](O)[C@@H]2O)[C@H](O)[C@H](O)[C@H]1O [monoHER, 7-monohydroxyethylrutoside]
adverse events during monoHER infusion ([3]; 8 patients, sensation of fullness in stomach (one), itching in skin of neck (one), during each cycle): two patients reported adverse events
leucopenia ([3]; due to chemotherapy, recovered before the start of the next cycle): all patients developed leucopenia
liver enzymes and serum creatinine ([3]; monoHER 1500 mg/m^2 plus DOX): No disturbances
metabolites of monoHER [4]: no metabolites of monoHER have been detected until now
influence on the antitumor activity of doxorubicin ([5]; in vitro or in vivo): did not influence the antitumor activity of doxorubicin
cardioprotection against doxorubicin-induced chronic cardiotoxicity ([5]; animals): dose-dependent cardioprotection
Cmax and AUC ([6]; dose 1500 mg/m^2): comparable to those obtained in mice under protecting conditions
side effects ([6]; up to a dose of 1500 mg/m^2): No serious side effects were observed
patients with partial remission / objective remission ([7]; 4 patients with metastatic soft tissue sarcoma (STS), DOX preceded by monoHER 1500 mg/m^2): Three and 3 of the four
effect on antitumour activity of DOX ([7]; STS patients): enhances the antitumour activity of DOX
Response on dox ([7]; patient 01, Breast cancer, total DOX 100 mg/m^2, monoHER 1500 mg/m^2 i.v. 60 min before every DOX): PD
Response on dox ([7]; patient 02, Adrenal cortical cancer, total DOX 150 mg/m^2, monoHER 1500 mg/m^2 i.v. 60 min before every DOX): PD
Response on dox ([7]; patient 03, Malignant peripheral nerve sheet tumor, total DOX 480 mg/m^2, monoHER 1500 mg/m^2 i.v. 60 min before every DOX): PR
Response on dox ([7]; patient 04, Malignant fibrous histiocytoma, total DOX 450 mg/m^2, monoHER 1500 mg/m^2 i.v. 60 min before every DOX): PR
Response on dox ([7]; patient 05, Breast cancer, total DOX 100 mg/m^2, monoHER 1500 mg/m^2 i.v. 60 min before every DOX): PD
Response on dox ([7]; patient 06, Breast cancer, total DOX 300 mg/m^2, monoHER 1500 mg/m^2 i.v. 60 min before every DOX): SD
Response on dox ([7]; patient 07, Malignant fibrous histiocytoma, total DOX 300 mg/m^2, DOX immediately after monoHER 1500 mg/m^2 i.v.): PR
Response on dox ([7]; patient 08, Malignant fibrous histiocytoma, total DOX 375 mg/m^2, DOX 2 h after monoHER 1500 mg/m^2 i.v.): SD
duration of partial remission ([7]; patient #3, then progressive disease): nine
partial remission maintained, time after the start of chemotherapy ([7]; patient #4): ≥ 30 months
partial remission maintained, time after the start of chemotherapy ([7]; patient #7): ≥ 16 months
duration of stable disease ([7]; patient #8, continuing DOX up to cumulative dose of 495 mg/m^2): at least 7 months
patients in whom the LVEF decreased ([8]; after 300-375 mg/m^2 DOX, no LVEF information for patient #6): 4/5
ECG during therapy ([8]; all patients): remained unchanged
cardiac dysfunction ([8]; all patients, during therapy): no cardiac dysfunction occurred
LVEF 10 months after last cycle ([8]; patient 03): ND / 51%
LVEF after ≥ 300 mg/m^2 ([8]; patient 03, LVEF before dox 71%, Δt 60 min): 67%
Cum.dose / biopsy score / LVEF: LVEF [8, 10]: 53%
LVEF 10 months after last cycle ([8]; patient 04): 62%
LVEF after ≥ 300 mg/m^2 ([8]; patient 04, LVEF before dox 72%, Δt 60 min): 60%
Cum.dose / biopsy score / LVEF: LVEF [8, 11]: 66%
LVEF after ≥ 300 mg/m^2 ([8]; patient 07, LVEF before dox 75%, Δt 10 min): 63%
LVEF after ≥ 300 mg/m^2 ([8]; patient 08, LVEF before dox 65%, Δt 120 min, 375 mg/m^2 DOX): 63%
decline of LVEF compared to the ejection fraction before start of the study ([8]; patient #3, after 480 mg/m2 DOX, 71% to 53%): 25%
decline of LVEF ([8]; patient #4, 72% before chemotherapy to 60% after 300 mg/m2 DOX): > 15%
LVEF decrease in comparison to the initial LVEF ([8]; two other patients): 4-6%
LVEF drop in comparison to the initial LVEF ([8]; two patients): 16%
mean biopsy score according to Billingham ([9]; 5 patients, median cumulative dose 300 mg/m2 DOX, monoHER 1500 mg/m^2 before DOX): 2.7
cardioprotective effect against DOX-induced cardiotoxicity ([9]; five patients with biopsy, monoHER 1500 mg/m^2): no cardioprotective effect; also recorded: did not protect against DOX-induced cardiotoxicity
Biopsy score cum.dose/Δt/grade ([9]; patient 03, cum. dose 300 mg/m^2 DOX, Δt 60 min after monoHER 1500 mg/m^2): 300 / 60 / Grade 3 (in grade 3 cell damage is present in more than 35% of cells)
Cum.dose / biopsy score / LVEF: biopsy score [9, 10]: 3 (in grade 3 cell damage is present in more than 35% of cells)
Cum.dose / biopsy score / LVEF: biopsy score [9, 11]: 2.5 (in grade 1, 1.5, 2 and 2.5 deviant cells are < 5%, 5-15%, 16 - 25 % and 26 - 35%, respectively)
Biopsy score 10 months after last cycle ([9]; patient 04, third biopsy): 2 (in grade 1, 1.5, 2 and 2.5 deviant cells are < 5%, 5-15%, 16 - 25 % and 26 - 35%, respectively)
Biopsy score cum.dose/Δt/grade ([9]; patient 06, cum. dose 300 mg/m^2 DOX, Δt 60 min after monoHER 1500 mg/m^2): 300 / 60 / Grade 2.5 (in grade 1, 1.5, 2 and 2.5 deviant cells are < 5%, 5-15%, 16 - 25 % and 26 - 35%, respectively)
Biopsy score cum.dose/Δt/grade ([9]; patient 07, cum. dose 300 mg/m^2 DOX, Δt 10 min after monoHER 1500 mg/m^2): 300 / 10 / Grade 3 (in grade 3 cell damage is present in more than 35% of cells)
Biopsy score cum.dose/Δt/grade ([9]; patient 08, cum. dose 375 mg/m^2 DOX, Δt 120 min after monoHER 1500 mg/m^2): 375 / 120 / Grade 3 (in grade 3 cell damage is present in more than 35% of cells)
microvacuoles present in % of the cardiomyocytes ([9]; patient #3, after 300 mg/m^2 DOX, monoHER 60 min before DOX): 52%
microvacuoles present in % of the cardiomyocytes ([9]; patient #4, after 300 mg/m^2 DOX, monoHER 60 min before DOX): 20%
cardiomyocytes with > 2 small vacuoles per cardiomyocyte ([9]; patient #6, after 300 mg/m^2 DOX, monoHER 60 min before DOX): 33%
microvacuolization in % of the cardiomyocytes ([9]; patient #7, DOX immediately after monoHER): 60%
microvacuolization in % of the cardiomyocytes ([9]; patient #8, DOX 2 h after monoHER): 49%
